Experimental data: the supplement of paper PMC8633005

Legend:
Test in all cases: drug sensitivity score (DSS) (DSS (unitless, 0-50 scale)); higher = more sensitive (stronger viability inhibition); extreme values may be limits of the assay
Conditions in all cases: 72 h; culture: 2D
Bowes = test system: Bowes
Summary of the method: (§1)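 Patient-derived melanoma cultures and melanoma cell lines were grown in 2D in 384-well plates with a 527-compound oncology library at five concentrations spanning a 10,000-fold range, with 1000–1500 cells per well for the cultures. CellTiter-Glo luminescence gave viability after 72 h at 37 °C. The drug sensitivity score is a modified area-under-curve measure derived from dose-response curves fitted in the in-house Breeze software.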

FM-MEL-2 = test system: FM-MEL-2
Summary of the method: as §1

FM-MEL-3 = test system: FM-MEL-3
Summary of the method: as §1

FM-MEL-6 = test system: FM-MEL-6
Summary of the method: as §1

SK-MEL-28 = test system: SK-MEL-28
Summary of the method: as §1

SK-MEL-2 = test system: SK-MEL-2
Summary of the method: as §1

WM165 = test system: WM165
Summary of the method: as §1

WM852 = test system: WM852
Summary of the method: as §1

Row | SMILES | drug sensitivity score (Bowes) | drug sensitivity score (FM-MEL-2) | drug sensitivity score (FM-MEL-3) | drug sensitivity score (FM-MEL-6) | drug sensitivity score (SK-MEL-28) | drug sensitivity score (SK-MEL-2) | drug sensitivity score (WM165) | drug sensitivity score (WM852)
1 | CN1CCN(c2cc(C(=O)Nc3ccc4c(c3)-c3c(c(C(N)=O)nn3-c3ccc(F)cc3)CC4)c(Cl)cn2)CC1 [PHA 408] | 0.5 | 5.7 | 1.1 | 5.2 | 0.1 | 4.2 | 3.4 | 5.3
2 | O=C(Nc1cc(Cl)cc2c1[nH]c1cnccc12)c1cccnc1 [PS-1145] | 0 | 0 | 0.7 | 0 | 0 | 0 | 0 | 1.3
3 | COc1cc(Br)c(Nc2nc(-c3c(C)nc4ncccn34)cs2)c(Br)c1 [PTC-209] | 13.7 | 5.1 | 11.2 | 5 | 4.6 | 4.2 | 12.4 | 7.6
4 | CC(=O)O[C@H]1C(=O)[C@@]2(C)[C@H]([C@H](OC(=O)c3ccccc3)[C@]3(O)C[C@H](OC(=O)[C@H](O)[C@@H](NC(=O)c4ccccc4)c4ccccc4)C(C)=C1C3(C)C)[C@]1(OC(C)=O)CO[C@@H]1C[C@@H]2O [Paclitaxel] | 23.3 | 5.3 | 11.9 | 13.7 | 11.5 | 16.5 | 22.2 | 20.5
5 | C1=N/C2=N/c3ccc(OCCN4CCCC4)c(c3)COC/C=C/COCc3cccc(c3)C(=C1)N2 [Pacritinib] | 16.8 | 9.8 | 9.5 | 7.7 | 9.8 | 5.4 | 9.8 | 9.1
6 | CC(=O)c1c(C)c2cnc(Nc3ccc(N4CCNCC4)cn3)nc2n(C2CCCC2)c1=O [Palbociclib] | 4.6 | 3.8 | 2.3 | 4.2 | 6.3 | 0.7 | 5.8 | 3.1
7 | COc1ccc(COc2cc3oc(=O)c4cc(C(C)O)ccc4c3cc2OC)cc1 (stereo not drawn) [Palomid-529] | 0 | 0.1 | 0.7 | 0.1 | 0 | 0 | 0 | 0
8 | Cc1[nH]c2ccccc2c1CCNCc1ccc(/C=C/C(=O)NO)cc1 [Panobinostat] | 10.1 | 16.2 | 14.9 | 12.1 | 12.9 | 16.8 | 19.6 | 9.3
9 | Cc1ccc(Nc2nccc(N(C)c3ccc4c(C)n(C)nc4c3)n2)cc1S(N)(=O)=O [Pazopanib] | 2.8 | 0 | 0 | 0.4 | 0 | 0 | 0 | 2.1
10 | Nc1nc2[nH]cc(CCc3ccc(C(=O)N[C@@H](CCC(=O)O)C(=O)O)cc3)c2c(=O)[nH]1 [Pemetrexed] | 24.5 | 0.6 | 0 | 0.1 | 6.6 | 0 | 7.4 | 0
11 | OC[C@H]1O[C@@H](n2cnc3c2N=CNC[C@H]3O)C[C@@H]1O [Pentostatin] | 0 | 0 | 1.8 | 0 | 0 | 0 | 0 | 0
12 | CCCCCCCCCCCCCCCCCCOP(=O)([O-])OC1CC[N+](C)(C)CC1 [Perifosine] | 0 | 0.2 | 0.4 | 0 | 0 | 0 | 0 | 0
13 | NS(=O)(=O)OC[C@@H]1C[C@@H](n2ccc3c(N[C@H]4CCc5ccccc54)ncnc32)C[C@@H]1O [Pevonedistat] | 10.9 | 6.2 | 12.4 | 7.8 | 7 | 11.7 | 20 | 11.7
14 | FC(F)(F)c1ccc(CNc2ccc(Cc3c[nH]c4ncc(Cl)cc34)cn2)cn1 [Pexidartinib] | 0.2 | 1 | 3 | 1.1 | 0.4 | 0 | 2.4 | 4.5
15 | CS(=O)(=O)N1CCN(Cc2cc3nc(-c4cccc5[nH]ncc45)nc(N4CCOCC4)c3s2)CC1 [Pictilisib] | 8.4 | 12.7 | 8.8 | 7.4 | 9.6 | 3.2 | 8.4 | 6.5
16 | CC[C@@H]1C(=O)OC[C@@H]1Cc1cncn1C [Pilocarpine] | 0 | 0 | 1.5 | 0 | 0 | 0 | 0 | 0
17 | CC(C)N(C[C@H]1O[C@@H](n2cnc3c(N)ncnc32)[C@H](O)[C@@H]1O)[C@H]1C[C@@H](CCc2nc3cc(C(C)(C)C)ccc3[nH]2)C1 [Pinometostat] | 0 | 0 | 0 | 0 | 0 | 0 | 0 | 0
18 | Cc1ccc(=O)n(-c2ccccc2)c1 [Pirfenidone] | 0 | 0 | 0 | 0 | 0 | 0 | 0 | 0
19 | NCCNc1ccc(NCCN)c2c1C(=O)c1ccncc1C2=O [Pixantrone] | 4.8 | 0 | 0 | 0.8 | 0 | 0 | 0.7 | 1.3
20 | c1cc(CN2CCCNCCNCCCNCC2)ccc1CN1CCCNCCNCCCNCC1 [Plerixafor] | 0 | 0 | 0 | 0 | 0 | 0 | 0 | 0
21 | CO[C@H](C(=O)[C@@H](O)[C@@H](C)O)[C@@H]1Cc2cc3cc(O[C@H]4C[C@@H](O[C@@H]5C[C@@H](O)[C@H](O)[C@@H](C)O5)[C@H](O)[C@@H](C)O4)c(C)c(O)c3c(O)c2C(=O)[C@H]1O[C@H]1C[C@@H](O[C@@H]2C[C@@H](O)[C@@H](O[C@@H]3C[C@](C)(O)[C@H](O)[C@@H](C)O3)[C@@H](C)O2)[C@H](O)[C@@H](C)O1 [Plicamycin] | 26.4 | 12.7 | 21.3 | 7.4 | 8.6 | 16.8 | 15.7 | 3.2

Row | SMILES | drug sensitivity score (Bowes) | drug sensitivity score (FM-MEL-2) | drug sensitivity score (FM-MEL-3) | drug sensitivity score (FM-MEL-6) | drug sensitivity score (SK-MEL-28) | drug sensitivity score (SK-MEL-2) | drug sensitivity score (WM165) | drug sensitivity score (WM852)
22 | Nc1cccc2c1C(=O)N(C1CCC(=O)NC1=O)C2=O (stereo not drawn) [Pomalidomide] | 0 | 0 | 0 | 0 | 0 | 0 | 0 | 0
23 | Cc1ccc(C(=O)Nc2ccc(CN3CCN(C)CC3)c(C(F)(F)F)c2)cc1C#Cc1cnc2cccnn12 [Ponatinib] | 9.1 | 7.8 | 9.1 | 4.5 | 4.9 | 4.4 | 8.3 | 6.2
24 | C=CC(=O)N1CCC(Oc2cc3c(Nc4ccc(Cl)c(Cl)c4F)ncnc3cc2OC)CC1 [Poziotinib] | 2.2 | 0 | 0 | 0 | 0 | 0 | 0 | 0
25 | CCCCc1nc2cc(/C=C/C(=O)NO)ccc2n1CCN(CC)CC [Pracinostat] | 9.2 | 14.5 | 13.3 | 14 | 12.9 | 14 | 16.8 | 9.1
26 | CC[C@H](C)C(=O)O[C@H]1C[C@H](O)C=C2C=C[C@H](C)[C@H](CC[C@@H](O)C[C@@H](O)CC(=O)O)[C@H]21 [Pravastatin] | 0 | 0.8 | 0 | 0 | 0 | 0 | 0 | 0
27 | C[C@]12C=CC(=O)C=C1CC[C@@H]1[C@@H]2[C@@H](O)C[C@@]2(C)[C@H]1CC[C@]2(O)C(=O)CO [Prednisolone] | 0 | 0.3 | 2.8 | 0 | 0 | 0 | 0 | 0
28 | Cn1cc(CNCC2CCN(c3ncc(C(=O)NO)cn3)CC2)c2ccccc21 [Quisinostat] | 9 | 13.4 | 11.3 | 10.6 | 10.7 | 13.5 | 16.3 | 5.7
29 | Nc1cc(F)ccc1NC(=O)/C=C/c1cnn(C/C=C/c2ccccc2)c1 [RGFP966] | 1.6 | 0 | 0.5 | 1.9 | 0 | 0 | 0 | 0
30 | COC(=O)c1ccc([C@H]2c3[nH]c4ccccc4c3C[C@H](C(=O)OC)N2C(=O)CCl)cc1 [RSL3] | 0 | 0 | 0 | 0 | 0 | 0 | 0 | 0
31 | Cc1cnc(NC(=O)Nc2cc(Br)c(C)cc2OC[C@@H]2CNCCO2)cn1 [Rabusertib] | 0.9 | 0 | 1.5 | 0 | 0 | 0 | 0 | 2.4
32 | Cc1cn(-c2cc(NC(=O)c3ccc(C)c(Nc4nccc(-c5cnccn5)n4)c3)cc(C(F)(F)F)c2)cn1 [Radotinib] | 0 | 5 | 8.6 | 2.6 | 0 | 0 | 0 | 0
33 | CC(C)(C)Cn1c(N)nc2ccc(-c3[nH]c(C(C)(C)C)nc3-c3ccc(F)cc3)nc21 [Ralimetinib] | 0 | 5.4 | 6.1 | 0 | 2 | 0 | 2.9 | 1
34 | O=C(c1ccc(OCCN2CCCCC2)cc1)c1c(-c2ccc(O)cc2)sc2cc(O)ccc12 [Raloxifene] | 0 | 2.1 | 4.7 | 1.8 | 1.3 | 0 | 2 | 1.9
35 | Cc1nc(=O)c2cc(CN(C)c3ccc(C(=O)N[C@@H](CCC(=O)O)C(=O)O)s3)ccc2[nH]1 [Raltitrexed] | 23.9 | 0 | 0 | 0 | 3.9 | 0 | 8.4 | 0
36 | Cn1nccc1Nc1nccc(-c2ccn([C@H](CO)c3ccc(Cl)c(F)c3)c(=O)c2)n1 [Ravoxertinib] | 1.7 | 11.9 | 12.4 | 5.6 | 13.1 | 5.2 | 12 | 1.9
37 | CNC(=O)c1cc(Oc2ccc(NC(=O)Nc3ccc(Cl)c(C(F)(F)F)c3)c(F)c2)ccn1 [Regorafenib] | 6.7 | 8.5 | 12.9 | 3.7 | 4.6 | 2.8 | 5.3 | 1.8
38 | CCOC(=O)C1=CCCC[C@H]1S(=O)(=O)Nc1ccc(F)cc1Cl [Resatorvid] | 0 | 0 | 0 | 0 | 0 | 0 | 0 | 0
39 | CCOCc1nc2c(N)nc3ccccc3c2n1CC(C)(C)O [Resiquimod] | 0.1 | 0 | 0 | 0.2 | 0 | 0 | 0 | 0.4
40 | CN(C)Cc1ccc(S(=O)(=O)n2ccc(/C=C/C(=O)NO)c2)cc1 [Resminostat] | 2.7 | 6.9 | 6.5 | 7.3 | 4.8 | 7.9 | 9.7 | 2.7
41 | CN(C)C(=O)c1cc2cnc(Nc3ccc(N4CCNCC4)cn3)nc2n1C1CCCC1 [Ribociclib] | 0 | 4.3 | 2.3 | 1.6 | 5.4 | 0 | 2.8 | 0.7
